Reference: PubChem BioAssay (NCI)
Values joined by “and” are separate entries in the source; they are usually repeats but may differ in a detail not shown here. Equal values may be shown once.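 Values below derive from 48-hour exposures of cells grown in 96-well plates, with endpoints linearly interpolated between the two concentrations bracketing the appropriate inhibition level. Abbreviation: GI50, concentration required for 50% inhibition of growth. TGI denotes the concentration required for complete inhibition of growth.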

Key:
Test in all cases: NCI-60 cell line screen, 48 h
[1] = system: NCI/ADR-RES ovarian
[2] = system: HT29 colon
[3] = system: NCI-H522 lung
[4] = system: K-562 leukemia
[5] = system: SR leukemia
[6] = system: OVCAR-4 ovarian
[7] = system: SF-268 CNS
[8] = system: SF-539 CNS
[9] = system: A498 renal
[10] = system: SK-MEL-5 melanoma

Compound: N#Cc1ccc(N2Cc3cc(Cl)ccc3OC3=C2C(=O)N(Cc2ccc(F)cc2)C3=O)cc1
- GI50 [1]: 0.85 µM
- TGI [1]: 8.58 µM
- GI50 [2]: 0.587 µM
- TGI [2]: 1.35 µM
- GI50 [3]: 0.475 µM
- TGI [3]: 1.01 µM
- GI50 [4]: 0.313 µM
- TGI [4]: 1.68 µM
- GI50 [5]: 0.275 µM
- TGI [5]: 1.12 µM
- GI50 [6]: 0.206 µM
- TGI [6]: 0.563 µM
- GI50 [7]: 0.658 µM
- TGI [7]: 1.66 µM
- GI50 [8]: 0.557 µM
- TGI [8]: 1.07 µM
- GI50 [9]: 3.26 µM
- TGI [9]: 15.3 µM
- GI50 [10]: 1.26 µM
- TGI [10]: 2.94 µM

Compound: Cc1cc(N2CCN(C)CC2)nc(N(CCNc2ccnc3cc(Cl)ccc23)Cc2ccco2)n1
- GI50 [1]: 3.1 µM
- TGI [1]: 14.8 µM
- GI50 [2]: 2.47 µM
- TGI [2]: 10.4 µM
- GI50 [3]: 3.51 µM
- TGI [3]: 13.3 µM
- GI50 [4]: 1.59 µM
- TGI [4]: 4.78 µM
- GI50 [5]: 2.09 µM
- TGI [5]: 5.23 µM
- GI50 [6]: 4.91 µM
- TGI [6]: 18.2 µM
- GI50 [7]: 5.82 µM
- TGI [7]: 20.3 µM
- GI50 [8]: 1.68 µM
- TGI [8]: 3.25 µM
- GI50 [9]: 4.79 µM
- TGI [9]: 17.3 µM
- GI50 [10]: 1.77 µM
- TGI [10]: 3.24 µM

Compound: O=C(O)CC1C(=O)OC2C3COC(=O)c4cc(O)c(O)c(O)c4-c4c(cc(O)c(O)c4O)C(=O)OC2C(OC(=O)c2cc(O)c(O)c4c2C1C(O)C(=O)O4)C(OC(=O)c1cc(O)c(O)c(O)c1)O3 (centres undefined)
- TGI [1]: 46.9 µM
- TGI [2]: 26.4 µM
- TGI [3]: 46.6 µM
- TGI [4]: > 100 µM
- TGI [5]: 75.8 µM
- TGI [6]: > 100 µM
- TGI [7]: > 100 µM
- TGI [8]: > 100 µM
- TGI [9]: > 100 µM
- TGI [10]: > 100 µM

Compound: O=C(NC1CCNCC1)c1[nH]ncc1NC(=O)c1c(Cl)cccc1Cl
- GI50 [1]: > 100 µM
- TGI [1]: > 100 µM
- GI50 [2]: 0.398 µM and 0.406 µM
- TGI [2]: 6.29 µM and > 10 µM
- GI50 [3]: 0.387 µM and 0.28 µM
- TGI [3]: 1.94 µM and 2.17 µM
- GI50 [4]: 0.476 µM and 0.403 µM
- TGI [4]: > 100 µM
- GI50 [6]: 0.402 µM and 0.383 µM
- TGI [6]: 14 µM and > 10 µM
- GI50 [7]: 0.343 µM and 0.352 µM
- TGI [7]: 3.82 µM and > 7.39 µM
- GI50 [8]: 0.271 µM and 0.257 µM
- TGI [8]: 0.7 µM and 0.666 µM
- GI50 [9]: 0.552 µM and 0.698 µM
- TGI [9]: 1.77 µM and 1.78 µM
- GI50 [10]: 2.44 µM and 0.961 µM
- TGI [10]: 7.67 µM and 5.53 µM

Compound: CCOc1ccc(/C=N\N2C(=O)c3ccccc3C2=O)cc1
- TGI [2]: > 100 µM
- TGI [4]: > 100 µM
- TGI [5]: > 100 µM
- TGI [6]: > 100 µM
- TGI [7]: > 100 µM
- TGI [8]: > 100 µM
- TGI [9]: > 100 µM
- TGI [10]: > 100 µM

Compound: CCOC(=O)C/C(N)=C(\C#N)C(=O)OCC
- TGI [2]: > 100 µM
- TGI [3]: > 100 µM
- TGI [4]: > 100 µM
- TGI [5]: > 100 µM
- TGI [7]: > 100 µM
- TGI [8]: > 100 µM
- TGI [9]: > 100 µM
- TGI [10]: > 100 µM

Compound: CN=c1ss/c(=N\C(=S)N(C)C)n1C1CCCCC1
- TGI [2]: > 31.6 µM
- TGI [3]: > 31.6 µM
- TGI [4]: > 31.6 µM
- TGI [6]: > 31.6 µM
- TGI [7]: > 31.6 µM
- TGI [8]: > 100 µM
- TGI [9]: > 31.6 µM
- TGI [10]: > 31.6 µM

Compound: Cc1ccc(SC2C(C)(C)N(C(C)C)P2(=O)N(C(C)C)C(C)C)cc1 (centres undefined)
- TGI [2]: > 100 µM
- TGI [3]: > 74.2 µM
- TGI [4]: > 52.4 µM
- TGI [5]: 31.4 µM
- TGI [6]: > 100 µM
- TGI [7]: > 100 µM
- TGI [8]: > 100 µM
- TGI [9]: > 100 µM
- TGI [10]: > 100 µM

Compound: COc1ccc(-c2nnc(Nc3nc(O)c(C4=c5cc(OC(F)(F)F)ccc5=NC4=O)s3)o2)cc1
- GI50 [1]: 20.2 µM
- TGI [1]: 75.4 µM
- GI50 [2]: 71.4 µM
- TGI [2]: > 100 µM
- GI50 [3]: 32.4 µM
- TGI [3]: > 100 µM
- GI50 [4]: 14.4 µM
- TGI [4]: 30.4 µM
- GI50 [5]: 9 µM
- TGI [5]: 34.2 µM
- GI50 [6]: 46.3 µM
- TGI [6]: > 100 µM
- GI50 [7]: > 100 µM
- TGI [7]: > 100 µM
- GI50 [8]: 16.2 µM
- TGI [8]: 30.7 µM
- GI50 [10]: 17.7 µM
- TGI [10]: 42.9 µM

Compound: COC(=O)CSc1n[nH]c(-c2ccccc2)n1
- TGI [2]: > 100 µM
- TGI [3]: > 100 µM
- TGI [4]: > 100 µM
- TGI [5]: 43.5 µM
- TGI [6]: > 100 µM
- TGI [7]: > 100 µM
- TGI [8]: > 100 µM
- TGI [9]: > 100 µM
- TGI [10]: > 100 µM

Compound: CC(N)CN.CC(N)CN.[Cl-].[O]=[Os+2]=[O] (centres undefined)
- GI50 [3]: 30.9 µM
- TGI [3]: > 100 µM
- GI50 [5]: 28.6 µM
- TGI [5]: > 100 µM
- GI50 [6]: > 100 µM
- TGI [6]: > 100 µM
- GI50 [7]: 77.3 µM
- TGI [7]: > 100 µM
- GI50 [8]: > 100 µM
- TGI [8]: > 100 µM
- GI50 [10]: 97.2 µM
- TGI [10]: > 100 µM

Compound: COC(=O)[C@H]1CC(=O)C=C2CCCC21 (some centres undefined)
- TGI [2]: > 100 µM
- TGI [3]: > 100 µM
- TGI [4]: > 100 µM
- TGI [6]: > 100 µM
- TGI [7]: > 100 µM
- TGI [8]: > 100 µM
- TGI [9]: > 100 µM
- TGI [10]: > 100 µM

Compound: COc1ccc(C2c3cc4c(c(OC)c3CC3OCC(=O)C32)OCO4)cc1OC (centres undefined)
- GI50 [1]: < 0.01 µM
- TGI [1]: 28.4 µM
- TGI [2]: 0.104 µM
- TGI [3]: 0.0181 µM
- TGI [5]: < 0.01 µM
- GI50 [6]: 15.7 µM
- TGI [6]: > 100 µM
- GI50 [7]: < 0.01 µM
- TGI [7]: > 100 µM
- GI50 [9]: < 0.01 µM
- TGI [9]: > 100 µM

Compound: CC1(C)C(=O)CCC(=O)C(C)(C)C2=CC=C(O2)C(C)(C)C(=O)CCC(=O)C(C)(C)C2=CC=C1O2
- TGI [2]: > 100 µM
- TGI [3]: > 100 µM
- TGI [4]: > 100 µM
- TGI [5]: > 100 µM
- TGI [6]: > 100 µM
- TGI [7]: > 100 µM
- TGI [9]: > 100 µM

Compound: CC(C)(C)C1CCC(CI)(N=[N+]=[N-])CC1 (centres undefined)
- TGI [2]: > 100 µM
- TGI [3]: > 100 µM
- TGI [4]: > 100 µM
- TGI [5]: > 100 µM
- TGI [6]: > 100 µM
- TGI [7]: > 100 µM
- TGI [8]: > 100 µM
- TGI [9]: > 100 µM
- TGI [10]: > 100 µM

Compound: CC(=O)Nc1cc(C(c2ccccc2)c2ccccc2)cc(C(c2ccccc2)c2ccccc2)c1C
- GI50 [1]: 6.01 µM
- TGI [1]: > 100 µM
- GI50 [2]: 8.26 µM
- TGI [2]: > 100 µM
- GI50 [3]: 6.39 µM
- TGI [3]: > 100 µM
- GI50 [4]: 2.83 µM
- TGI [4]: > 100 µM
- GI50 [6]: 21.7 µM
- TGI [6]: > 100 µM
- GI50 [7]: 8.2 µM
- TGI [7]: > 100 µM
- GI50 [8]: > 100 µM
- TGI [8]: > 100 µM
- GI50 [9]: 6.24 µM
- TGI [9]: > 100 µM
- GI50 [10]: 5.51 µM
- TGI [10]: > 100 µM

Compound: O=c1c2cc(Br)ccc2[nH]c(=S)n1-c1ccccc1
- TGI [2]: > 100 µM
- TGI [4]: > 100 µM
- TGI [6]: > 100 µM
- TGI [7]: > 100 µM
- TGI [8]: > 100 µM
- TGI [9]: > 100 µM
- TGI [10]: > 100 µM

Compound: O=C(O)c1ccccc1-c1ccccc1C(=O)Nc1ccc2c(c1)Cc1ccccc1-2
- TGI [1]: > 100 µM
- TGI [2]: 70.1 µM
- TGI [3]: 55.2 µM
- TGI [5]: 65.1 µM
- TGI [6]: > 100 µM
- TGI [7]: > 100 µM
- TGI [8]: 44.6 µM
- TGI [9]: 44 µM
- TGI [10]: 31.6 µM

Compound: Cc1cn(C2CC(N=[N+]=[N-])C(CO)O2)c(=O)[nH]c1=O (centres undefined)
- GI50 [1]: 296 µM
- TGI [1]: > 1000 µM
- TGI [2]: > 1000 µM
- GI50 [3]: > 1000 µM
- TGI [3]: > 1000 µM
- TGI [4]: > 1000 µM
- TGI [5]: > 1000 µM
- GI50 [6]: > 1000 µM
- TGI [6]: > 1000 µM
- TGI [10]: > 1000 µM
